# From article PMC10873635 (Proceedings of the National Academy of Sciences of the …, 2024)
# How the values were obtained:
# His6-ALO (Anthrolysin O) = His6-ALO (Anthrolysin O) (Bacillus anthracis, UniProt A0A6L7HHW7); format: biochemical
# His6-Scap(L1)-FLAG = target: T1, His6-Scap(L1)-FLAG (Cricetulus griseus, UniProt P97260); experiment: competition with [3H]cholesterol; format: binding; conditions: 150 nM [3H]cholesterol, 0.004% NP-40, 0.002% FC-13, 4 °C, 4 h
# T1 sequence (P97260 46-269): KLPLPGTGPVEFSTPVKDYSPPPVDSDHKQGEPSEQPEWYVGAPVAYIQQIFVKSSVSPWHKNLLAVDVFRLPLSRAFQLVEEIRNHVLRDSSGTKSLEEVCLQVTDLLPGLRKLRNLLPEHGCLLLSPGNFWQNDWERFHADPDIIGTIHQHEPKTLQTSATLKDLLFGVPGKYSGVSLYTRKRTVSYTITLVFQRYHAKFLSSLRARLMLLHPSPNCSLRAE
# Chain of His6-ALO (Anthrolysin O) (A0A6L7HHW7 35-512 limits assumed): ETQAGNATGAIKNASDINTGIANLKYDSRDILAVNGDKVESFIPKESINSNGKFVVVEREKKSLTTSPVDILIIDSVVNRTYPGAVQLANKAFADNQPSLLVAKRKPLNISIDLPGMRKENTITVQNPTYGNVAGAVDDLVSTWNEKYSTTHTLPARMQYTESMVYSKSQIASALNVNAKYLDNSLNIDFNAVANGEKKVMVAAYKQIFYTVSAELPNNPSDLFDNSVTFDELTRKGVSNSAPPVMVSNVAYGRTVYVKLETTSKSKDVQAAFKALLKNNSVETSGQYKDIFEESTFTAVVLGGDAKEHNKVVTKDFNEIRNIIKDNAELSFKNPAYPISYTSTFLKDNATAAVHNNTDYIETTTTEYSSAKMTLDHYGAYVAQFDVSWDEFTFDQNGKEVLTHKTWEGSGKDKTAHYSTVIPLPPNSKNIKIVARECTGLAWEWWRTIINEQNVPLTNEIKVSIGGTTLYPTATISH
Compound,inhibition of hemolysis of rabbit erythrocytes (His6-ALO (Anthrolysin O)),competition with [3H]cholesterol (His6-Scap(L1)-FLAG; competitive),"competition with [3H]cholesterol (His6-Scap(L1)-FLAG; competitive, cholesterol site)",competition with [3H]cholesterol (His6-Scap(L1)-FLAG; also labelled compound)
C[C@H](CCCC(C)(C)F)[C@H]1CC[C@H]2[C@@H]3CC=C4C[C@@H](O)CC[C@]4(C)[C@H]3CC[C@]12C [25-fluorocholesterol],"both Scap and ALO bind desmosterol, 25-fluorocholesterol, and β-sitosterol","both Scap and ALO bind desmosterol, 25-fluorocholesterol, and β-sitosterol",–,–
"CCOC(=O)c1ccc(NC(=O)Nc2ccc(-c3noc(C4CCC4)n3)cc2)cc1 [UT-59, ethyl 4-({[4-(5-cyclobutyl-1,2,4-oxadiazol-3-yl)anilino]carbonyl}amino) benzoate]",–,–,UT-59 competed with [^3H]cholesterol for binding to His6-Scap(L1)-FLAG to a similar degree as unlabeled cholesterol,–
CC(C)CCC[C@@H](C)[C@H]1CC[C@H]2[C@@H]3CC=C4C[C@@H](O)CC[C@]4(C)[C@H]3CC[C@]12C [cholesterol],"the sterol occupied the binding pocket, preventing ALO from binding to the membrane and inhibiting hemolysis",–,–,"As expected, both Scap and ALO bind cholesterol."
CC(C)=CCC[C@@H](C)[C@H]1CC[C@H]2[C@@H]3CC=C4C[C@@H](O)CC[C@]4(C)[C@H]3CC[C@]12C [desmosterol],"both Scap and ALO bind desmosterol, 25-fluorocholesterol, and β-sitosterol","both Scap and ALO bind desmosterol, 25-fluorocholesterol, and β-sitosterol",–,–
CC(C)CCC[C@@H](C)[C@H]1CC[C@H]2[C@@H]3CC[C@H]4C[C@@H](O)CC[C@]4(C)[C@H]3CC[C@]12C [dihydrocholesterol],–,"as well as dihydrocholesterol, where the double bond in the steroid nucleus is reduced",–,–
CC[C@H](CC[C@@H](C)[C@H]1CC[C@H]2[C@@H]3CC=C4C[C@@H](O)CC[C@]4(C)[C@H]3CC[C@]12C)C(C)C [β-sitosterol],"both Scap and ALO bind desmosterol, 25-fluorocholesterol, and β-sitosterol","both Scap and ALO bind desmosterol, 25-fluorocholesterol, and β-sitosterol",–,–
